Non-standard residues stand in square brackets, D forms with d. Primed or numbered codes have the meaning given here. No end group written: not given here. Aib′ = alpha aminobutyric acid (source's wording); 20k PEG = polyethylene glycol, 20 kDa
How the values were obtained:
[1] = tested on: C57B16 (normal lean) mice; assay: Blood glucose and intraperitoneal glucose tolerance test in C57B16 (normal lean) mice; type: in vivo, mouse
Procedure: C57B16 (normal lean) mice were used at 10 to 12 weeks of age. These mice are commercially available through any vendor, such as Jackson Laboratories or Charles River, and are considered to be normal. The term “lean” is used to contrast these mice to obese db/db mice. C57B16 mice were randomized on body weight. […] After 4-5 hrs, an intraperitoneal glucose tolerance test (glucose tolerance test measures the body's ability to metabolize glucose) was performed using 2 g/kg of glucose dose. Blood glucose levels were measured 30 min and 90 minutes after the glucose load was administered and 24 hours or until blood glucose levels were back to the original values.

[2] = tested on: db/db diabetic mouse model; assay: Fed blood glucose in db/db diabetic mice; type: in vivo
Procedure: The db/db mice are commercially available from The Jackson Laboratory JAX® GEMM® Strain—Spontaneous Mutation Congenic Mice, and are homozygous for the diabetes spontaneous mutation (Lepr^db). These mice become identifiably obese around 3 to 4 weeks of age. The criterion for selection for each mouse to enter the study was blood glucose of at least 300 mg/dL. Db/db mice at 8.5 weeks of age (for a chronic 1-2 wk study) to about 10-11 weeks of age (for an acute 1-3 day study) were injected once with each tested compound (acute experiment) or multiple times (chronic experiment). […] The mice were then placed in a fresh cage without any chow, so as to limit any variability in blood glucose levels associated with eating behaviors. Time points of 1 hr, 4 hr, 6 hr, and 24 hr were normally taken. When at the 24 hour time point blood glucose values were below where they started, further time points at every 24 hrs were taken until blood glucose returned to the baseline levels. Normal chow was given back after the 6 hr time point.
Tachyphylaxis was determined by multiple injections. A second injection of the compound was administered after the blood glucose levels sufficiently returned to starting baseline levels. At this point, it was evident whether the compound had the same effect/efficacy, or if there was any noticeable tachyphylaxis.

mgGLP32: SEQ ID NO: 18 + 20 k PEG (HGEGTFTSDVSSYLE[Aib′]QAAKEFIAWLVKGRGC(20k PEG)A-NH2; not fully specified)
tachyphylaxis after the 4th dose (FIG. 19) ([1]; 4-day multiple dose experiment): No tachyphylaxyis was observed after the 4th dose | blood glucose after injection, before the GTT (FIG. 16) ([1]; C57B16 mice, first 52 hours after injection): decreased blood glucose to the same extent during the first 52 hours | blood glucose during the 4 hour fast (FIG. 19) ([1]; multiple dose experiment): blood glucose was decreased during the 4 hour fast | blood glucose spike during first and second GTT (FIG. 19) ([1]; multiple dose experiment, GTT after first and 4th injection): no blood glucose spike was seen during the first and second GTT | lowering of blood glucose levels (FIG. 14) ([2]; 10 ug per mouse): lowered blood glucose levels | time needed for blood glucose levels to return to normal levels ([2]; 10 ug/mouse): 72 h | lowering of blood glucose at different doses (FIG. 15) ([2]; 5 and 10 μg/mouse): lowered blood glucose levels for 24 hours in a dose dependent fashion | tachyphylaxis, multiple dose experiment ([2]; second bolus the next day): The same result was observed

Source: US20130203659A1 (priority 2006, published 2013)
